Measurements: ChEMBL document CHEMBL4725225, “Exploratory studies on CA-15L, an anti-HIV active HIV-1 capsid fragment” (Bioorg Med Chem, 2020)

Columns and labels:
[1] = system: Human immunodeficiency virus 1; assay: Antiviral activity against Human immunodeficiency virus 1 NLAD-8 infected in human PM1 cells expressing CCR5 assessed as reduction in virus-induced cytopathogenicity measured after 5 days by MTT assay; type: functional, organism-based; conditions: Human immunodeficiency virus 1, NLAD-8, PM1, 120 h
[2] = Cytotoxicity against Human immunodeficiency virus 1 NL4-3 infected in human MT4 cells assessed as reduction in cell viability measured after 5 days by MTT assay; type: cell-based; conditions: MT4 cells infected with HIV-1 NL4-3, time 5 day
[3] = system: Human immunodeficiency virus 1; assay: Antiviral activity against Human immunodeficiency virus 1 NL4-3 infected in human MT4 cells assessed as reduction in virus-induced cytopathogenicity measured after 5 days by MTT assay; type: functional, organism-based; conditions: Human immunodeficiency virus 1, NL4-3, MT4, 120 h
[4] = Cytotoxicity against Human immunodeficiency virus 1 NLAD8 infected in human PM1 cells expressing CCR5 assessed as cell viability measured after 5 days by MTT assay; type: cell-based; conditions: PM1 cells expressing CCR5 infected with HIV-1 NLAD8, time 5 day

Row | Structure (SMILES) | EC50 [1] [µM] | CC50 at 120 h [2] [µM] | EC50 [3] [µM] | CC50 at 120 h [4] [µM]
1 | CC[C@H](C)[C@H](NC(C)=O)C(=O)N[C@H](C(=O)N[C@@H](CCCNC(=N)N)C(=O)N[C@@H](CCSC)C(=O)N[C@@H](Cc1ccc(O)cc1)C(=O)N[C@@H](CO)C(=O)N1CCC[C@H]1C(=O)N[C@H](C(=O)N[C@@H](COP(=O)(O)O)C(=O)N[C@H](C(=O)N[C@@H](CC(C)C)C(=O)N[C@@H](CC(=O)O)C(=O)N[C@H](C(=O)N[C@@H](CCCNC(=N)N)C(=O)N[C@@H](CCC(N)=O)C(=O)NCC(=O)N[C@@H](CSCC(=O)N[C@@H](CCCNC(=N)N)C(=O)N[C@@H](CCCNC(=N)N)C(=O)N[C@@H](CCCNC(=N)N)C(=O)N[C@@H](CCCNC(=N)N)C(=O)N[C@@H](CCCNC(=N)N)C(=O)N[C@@H](CCCNC(=N)N)C(=O)N[C@@H](CCCNC(=N)N)C(=O)N[C@@H](CCCNC(=N)N)C(N)=O)C(N)=O)[C@@H](C)CC)[C@@H](C)CC)[C@@H](C)O)C(C)C | > 50 | 44 | > 44 | > 50
2 | CC[C@H](C)[C@H](NC(C)=O)C(=O)N[C@H](C(=O)N[C@@H](CCCNC(=N)N)C(=O)N[C@@H](CCSC)C(=O)N[C@@H](Cc1ccc(O)cc1)C(=O)N[C@@H](CO)C(=O)N1CCC[C@H]1C(=O)N[C@H](C(=O)N[C@@H](CO)C(=O)N[C@H](C(=O)N[C@@H](CC(C)C)C(=O)N[C@@H](CC(=O)O)C(=O)N[C@H](C(=O)N[C@@H](CCCNC(=N)N)C(=O)N[C@@H](CCC(N)=O)C(=O)NCC(=O)N[C@@H](CSCC(=O)N[C@@H](CCCNC(=N)N)C(=O)N[C@@H](CCCNC(=N)N)C(=O)N[C@@H](CCCNC(=N)N)C(=O)N[C@@H](CCCNC(=N)N)C(=O)N[C@@H](CCCNC(=N)N)C(=O)N[C@@H](CCCNC(=N)N)C(=O)N[C@@H](CCCNC(=N)N)C(=O)N[C@@H](CCCNC(=N)N)C(N)=O)C(N)=O)[C@@H](C)CC)[C@@H](C)CC)[C@@H](C)O)C(C)C | 1.2 | 9.3 | 4.6 | 18
3 | c1cc(CN2CCCNCCNCCCNCC2)ccc1CN1CCCNCCNCCCNCC1 [PLERIXAFOR] | > 50 | > 50 | 0.035 | > 50
4 | COC[C@@H](c1ccc(C(F)(F)F)cc1)N1CCN(C2(C)CCN(C(=O)c3c(C)ncnc3C)CC2)C[C@@H]1C [VICRIVIROC] | 0.014 | > 5 | > 5 | > 5
5 | CC[C@H](C)[C@H](NC(C)=O)C(=O)N[C@H](C(=O)N[C@@H](CCCNC(=N)N)C(=O)N[C@@H](CCSC)C(=O)N[C@@H](Cc1ccc(O)cc1)C(=O)N[C@@H](CO)C(=O)N1CCC[C@H]1C(=O)N[C@H](C(=O)N[C@@H](CC(F)(F)P(=O)(O)O)C(=O)N[C@H](C(=O)N[C@@H](CC(C)C)C(=O)N[C@@H](CC(=O)O)C(=O)N[C@H](C(=O)N[C@@H](CCCNC(=N)N)C(=O)N[C@@H](CCC(N)=O)C(=O)NCC(=O)N[C@@H](CSCC(=O)N[C@@H](CCCNC(=N)N)C(=O)N[C@@H](CCCNC(=N)N)C(=O)N[C@@H](CCCNC(=N)N)C(=O)N[C@@H](CCCNC(=N)N)C(=O)N[C@@H](CCCNC(=N)N)C(=O)N[C@@H](CCCNC(=N)N)C(=O)N[C@@H](CCCNC(=N)N)C(=O)N[C@@H](CCCNC(=N)N)C(N)=O)C(N)=O)[C@@H](C)CC)[C@@H](C)CC)[C@@H](C)O)C(C)C | > 50 | > 50 | > 50 | > 50
6 | Cc1cn([C@H]2C[C@H](N=[N+]=[N-])[C@@H](CO)O2)c(=O)[nH]c1=O [ZIDOVUDINE] | 0.3 | > 50 | 0.043 | > 100
7 | CC[C@H](C)[C@H](NC(C)=O)C(=O)N[C@H](C(=O)N[C@@H](CCCNC(=N)N)C(=O)N[C@@H](CCSC)C(=O)N[C@@H](Cc1ccc(O)cc1)C(=O)N[C@@H](CO)C(=O)N1CCC[C@H]1C(=O)N[C@H](C(=O)N[C@@H](CCC(=O)O)C(=O)N[C@H](C(=O)N[C@@H](CC(C)C)C(=O)N[C@@H](CC(=O)O)C(=O)N[C@H](C(=O)N[C@@H](CCCNC(=N)N)C(=O)N[C@@H](CCC(N)=O)C(=O)NCC(=O)N[C@@H](CSCC(=O)N[C@@H](CCCNC(=N)N)C(=O)N[C@@H](CCCNC(=N)N)C(=O)N[C@@H](CCCNC(=N)N)C(=O)N[C@@H](CCCNC(=N)N)C(=O)N[C@@H](CCCNC(=N)N)C(=O)N[C@@H](CCCNC(=N)N)C(=O)N[C@@H](CCCNC(=N)N)C(=O)N[C@@H](CCCNC(=N)N)C(N)=O)C(N)=O)[C@@H](C)CC)[C@@H](C)CC)[C@@H](C)O)C(C)C | > 50 | 31 | > 31 | > 50
